Structures can show the parent of a compound that is named as a salt.
test system: γ-secretase; production of amyloid beta protein Aβ(1-42); assay: Cell-Based γ-Secretase Assay with ELISA Readout; conditions: human WT-APP overexpressing CHO cells; footnote 8: single determination; read-out: Aβ 42B IC50 (nM) (Geometric Mean of 2-8 Determinations)
Procedure: The ability of compounds to modulate production of amyloid beta protein A6(1-42) was determined using human WT-APP overexpressing CHO cells. Cells were plated at 22,000 cells/100 μL well in 96 well tissue culture treated, clear plates (Falcon) in DMEM/F12 based medium and incubated for 24 hours at 37° C. Compounds for testing were diluted in 100% DMSO to achieve an eleven points, half log, dose response for IC50 determinations. Compounds were added in fresh medium to achieve 1% final DMSO. Appropriate vehicle and inhibitor controls were added to obtain maximum and minimum inhibition values for the assay before the plates were incubated for about 24 hours at 37° C.
Coating of ELISA assay plates was initiated by addition of 50 μL/well of an in-house Aβ(1-42) specific antibody at (4 μg/mL) in 0.1 M NaHCO3 (pH 9.0) into black 384-well Maxisorp® plates (Nunc) and incubated overnight at 4° C. The capture antibody was then aspirated from the ELISA assay plates and 100 μL/well of Blocking Buffer (Dulbecco's PBS, 1.5% BSA (Sigma A7030)) added. Ambient temperature incubation was allowed to proceed for a minimum of two hours before washing 2×100 μL with Wash Buffer (Dulbecco's PBS, 0.05% Tween 20). Assay Buffer (Dulbecco's PBS, 1.0% BSA (Sigma A7030), 0.05% Tween 20) 20 μL/well was then added.
After incubation overnight at 37° C., 5% CO2, 40 μL (in duplicate) of experimental conditioned media were transferred into wells of the blocked ELISA plates containing the capture antibody, followed by overnight incubation at 4° C.
After overnight incubation of the ELISA assay plates at 4° C., unbound Aβ peptides were removed thorough (4×100 μL) washes with Wash Buffer. Europium (Eu) labeled (custom labeled, Perkin Elmer) Aβ(1-16) 6e10 Monoclonal Antibody (Covance #SIG-39320 was added, (50 μL/well Eu-6e10 @ 1:5000, 20 uM EDTA) in Assay Buffer. Incubation at ambient temperature for a minimum of 2 hours was followed by (4×100 μL) washes with Wash Buffer, before 50 μL/well of Delfia Enhancement Solution (PerkinElmer) was added. Following a one hour ambient temperature incubation, the plates were read on an EnVision plate reader (PerkinElmer) using standard DELFIA TRF settings. Data analysis including inhibitory IC50 determination was performed using nonlinear regression fit analysis (in-house software) and the appropriate plate mean values for the maximum and minimum inhibition controls.

| Structure (SMILES) | IC50 [nM] |
| --- | --- |
| CC(C)CCN(CCC(F)(F)F)[C@@H]1CC[C@@H](CC(=O)O)C[C@H]1c1ccc(C(F)(F)F)cc1 (racemic) [Example 9, {(1R,3S,4R)/ (1S,3R,4S)-4-[(3-methylbutyl) (3,3,3-trifluoropropyl)amino]-3-[4-(trifluoromethyl)phenyl]cyclohexyl} acetic acid, hydrochloride salt] | 618 |
| CC(C)CCN(CCC(F)(F)F)[C@@H]1CO[C@@H](CC(=O)O)C[C@H]1c1ccc(C(F)(F)F)cc1 [Example 10, 2-{(2R,4S,5S)-5-[(3-methylbutyl)(3,3,3-trifluoropropyl)amino]-4-[4-(trifluoromethyl)phenyl]tetrahydro-2H-pyran-2-yl} acetic acid, hydrochloride salt] | 4770 |
| CC(C)CCN(CCC(F)(F)F)[C@@H]1CC[C@@H](CC(=O)O)C[C@H]1c1ccc(C(F)(F)F)cc1 [Example 11, {(1R,3S,4R)-4-[(3-methylbutyl) (3,3,3-trifluoropropyl)amino]-3-[4-(trifluoromethyl)phenyl]cyclohexyl} acetic acid, hydrochloride salt] | 470 |
| CC(C)CCN(CCC(F)(F)F)[C@@H]1CC[C@@H](CC(=O)O)C[C@H]1c1ccc(C(F)(F)F)nc1 [Example 12, {(1R,3S,4R)-4-[(3-methylbutyl) (3,3,3-trifluoro-propyl)amino]-3-[6-(trifluoromethyl)pyridin-3-yl]cyclohexyl}acetic acid] | 1370 |
| CC(C)CCN(CC1CCCCC1)[C@@H]1CC[C@@H](CC(=O)O)C[C@H]1c1ccc(C(F)(F)F)cc1 [Example 13, {(1R,3S,4R)-4-[(cyclohexylmethyl) (3-methylbutyl)amino]-3-[4-(trifluoromethyl)phenyl]cyclohexyl} acetic acid] | 236 |
| CC(C)CCN(CC1(F)CCCCC1)[C@@H]1CC[C@@H](CC(=O)O)C[C@H]1c1ccc(C(F)(F)F)cc1 [Example 14, {(1R,3S,4R)-4-{[(1-fluorocyclo-hexyl)methyl](3-methylbutyl)amino}-3-[4-(trifluoromethyl)phenyl]cyclohexyl} acetic acid] | 103 |
| O=C(O)C[C@@H]1CC[C@@H](N(CC2CCCCC2)CC2CCCCC2)[C@H](c2ccc(C(F)(F)F)cc2)C1 [Example 15, {(1R,3S,4R)-4-[bis(cyclohexylmethyl)amino]-3-[4-(trifluoro-methyl)phenyl]cyclohexyl}acetic acid] | 107 |
| CC(C)CCN(C1CCC(F)(F)CC1)[C@@H]1CC[C@@H](CC(=O)O)C[C@H]1c1ccc(C(F)(F)F)cc1 [Example 16, {(1R,3S,4R)-4-[(4,4-difluoro-cyclohexyl)(3-methylbutyl)amino]-3-[4-(trifluoromethyl)phenyl]cyclohexyl} acetic acid] | 496 |

Other lines, results leading:

| IC50 [nM] | Structure (SMILES) |
| --- | --- |
| 9190 | Cc1cc(Cl)ccc1[C@@H]1OC(CC(=O)O)CC[C@H]1N(CC1CCCC1)CC1CCCC1 (stereo in doubt) [Example 24, [(2R,5R,6S)-5-[bis(cyclopentyl-methyl)amino]-6-(4-chloro-2-methylphenyl)tetrahydro-2H-pyran-2-yl]acetic acid] |
| 1510 | CC(C)CCN(CC1CCCCO1)[C@@H]1CC[C@@H](CC(=O)O)C[C@H]1c1ccc(C(F)(F)F)cc1 (stereo partly drawn) [Example 17, {[1R,3S,4R)-4-[(3-methylbutyl) (tetrahydro-2H-pyran-2-ylmethyl)amino]-3-[4-(trifluoromethyl)phenyl]cyclohexyl} acetic acid] |
| 2630 | O=C(O)C[C@@H]1CC[C@@H](N(CC2CCCC2)CC2CCCC2)[C@H](c2ccc(F)cc2)C1 [Example 18, [(1R,3S,4R)-4-[bis(cyclopentyl-methyl)amino]-3-(4-fluorophenyl)cyclohexyl]acetic acid] |
| 837 | O=C(O)C[C@@H]1CC[C@@H](N(CC2CCCC2)CC2CCCC2)[C@H](c2ccc(C(F)(F)F)nc2)O1 [Example 19, {(2S,5R,6S)-5-[bis(cyclopentyl-methyl)amino]-6-[6-(trifluoromethyl)pyridin-3-yl]tetrahydro-2H-pyran-2-yl}acetic acid] |
| 959 | O=C(O)C[C@@H]1CC[C@@H](N(CC2CCCC2)CC2CCCC2)[C@H](c2cccc(C(F)(F)F)c2)O1 [Example 20, {(2S,5R,6S)-5-[bis(cyclopentyl-methyl)amino]-6-[3-(trifluoromethyl)phenyl]tetrahydro-2H-pyran-2-yl} acetic acid] |
| 435 | CC1(CN(CC2CCCC2)[C@@H]2CC[C@@H](CC(=O)O)C[C@H]2c2ccc(C(F)(F)F)cc2)CCCC1 [Example 21, {(1R,3S,4R)-4-{(cyclopentyl-methyl)[(1-methylcyclo-pentyl)methyl]amino}-3-[4-(trifluoromethyl)phenyl]cyclohexyl} acetic acid] |
| 6390 | O=C(O)C[C@H]1CC[C@@H](N(CC2CCCC2)CC2CCCC2)[C@H](c2ccc(C(F)(F)F)cc2)O1 [Example 22, {(2R,5R,6S)-5-[bis(cyclopentyl-methyl)amino]-6-[4-(trifluoromethyl)phenyl]tetrahydro-2H-pyran-2-yl} acetic acid] |
| 868 | CC1CN([C@@H]2CC[C@@H](CC(=O)O)C[C@H]2c2ccc(C(F)(F)F)cc2)CC2(CCCCC2)C1 (stereo partly drawn) [Example 23, {(1R,3S,4R)-4-(4-methyl-2-azaspiro[5.5]undec-2-yl)-3-[4-(trifluoromethyl)phenyl]cyclohexyl} acetic acid] |
| 8840 | O=C(O)C[C@@H]1CC[C@@H](N2C[C@@H]3CC[C@@H](C3)C2)[C@H](c2ccc(C(F)(F)F)cc2)C1 [Example 25, {(1R,3S,4R)-4-[(1R,5S)-3-azabicyclo[3.2.1]oct-3-yl]-3-[4-(trifluoromethyl)phenyl]cyclohexyl} acetic acid] |
| 190 | O=C(O)C[C@@H]1CC[C@@H](N(Cc2ccc(F)cc2)CC2CCCC2)[C@H](c2ccc(C(F)(F)F)cc2)C1 [Example 26, {(1R,3S,4R)-4-[(cyclopentyl-methyl)(4-fluorobenzyl)amino]-3-[4-(trifluoromethyl)phenyl]cyclohexyl} acetic acid] |
| 155 | O=C(O)C[C@@H]1CC[C@@H](N(Cc2ccccc2F)CC2CCCC2)[C@H](c2ccc(C(F)(F)F)cc2)C1 [Example 27, {(1R,3S,4R)-4-[(cyclopentyl-methyl)(2-fluorobenzyl)amino]-3-[4-(trifluoromethyl)phenyl]cyclohexyl} acetic acid] |

same assay, conditions: human WT-APP overexpressing CHO cells; geometric mean of 2-4 determinations unless otherwise indicated (footnote 10: 6-8; footnote 14: single determination); read-out: Aβ 42B IC50

| IC50 [nM] | Structure (SMILES) |
| --- | --- |
| 544 | CC(C)C[C@H](C)N(CC1CCCC1)[C@@H]1CC[C@@H](CC(=O)O)C[C@H]1c1ccc(C(F)(F)F)cc1 (single isomer, unassigned) [Example 56] |

same assay, conditions: human WT-APP overexpressing CHO cells; geometric mean of 2 determinations unless otherwise indicated (footnote 2: 6-14 determinations); read-out: Aβ 42B IC50

| IC50 [nM] | Structure (SMILES) |
| --- | --- |
| 1750 | CC(C)CCN(CCC(C)C)[C@@H]1CC[C@@H]([C@@H](C)C(=O)O)C[C@H]1c1ccc(C(F)(F)F)cc1 (single isomer, unassigned) [Example 7] |
| 1580 | CC(C)CCN(CCC(C)C)[C@@H]1CC[C@@H]([C@H](C)C(=O)O)C[C@H]1c1ccc(C(F)(F)F)cc1 (single isomer, unassigned) [Example 8] |
| 229 | O=C(O)C[C@@H]1CC[C@@H](N(CC2CCCC2)CC2CCCC2)[C@H](c2ccc(C(F)(F)F)cc2)C1 [Example 1, {(1R,3S,4R)-4-[bis(cyclopentylmethyl)amino]-3-[4-(trifluoromethyl)phenyl]cyclohexyl}acetic acid] |
| 139 | O=C(O)C[C@@H]1CC[C@@H](N(Cc2ccccc2)CC2CCCC2)[C@H](c2ccc(C(F)(F)F)cc2)C1 [Example 2, {(1R,3S,4R)-4-[benzyl(cyclopentylmethyl)amino]-3-[4-(trifluoromethyl)phenyl]cyclohexyl}acetic acid] |
| 357 | O=C(O)C[C@@H]1CC[C@@H](N(CC2CCCC2)CC2CCCC2)[C@H](c2ccc(C(F)(F)F)cc2)O1 [Example 3, {(2S,5R,6S)-5-[bis(cyclopentylmethyl)amino]-6-[4-(trifluoromethyl)phenyl]tetrahydro-2H-pyran-2-yl}acetic acid] |
| 608 | CC(C)CN(CC1CCCC1)[C@@H]1CC[C@@H](CC(=O)O)O[C@H]1c1ccc(C(F)(F)F)cc1 [Example 4, {(2S,5R,6S)-5-[(cyclopentylmethyl)(isobutyl)amino]-6-[4-(trifluoromethyl)phenyl]tetrahydro-2H-pyran-2-yl}acetic acid] |
| 719 | O=C(O)C[C@@H]1CC[C@@H](N(CC2CCCC2)CC2CCCC2)[C@H](c2ccc(Cl)cc2)C1 [Example 6, [(1R,3S,4R)-4-[bis(cyclopentylmethyl)amino]-3-(4-chlorophenyl)cyclohexyl]acetic acid] |

From US20120295923A1, “Aminocyclohexanes and Aminotetrahydropyrans and Related Compounds As Gamma-Secretase Modulators” (PFIZER INC., priority 2010, published 2012)
